target: T1, G1 APOL1 (Homo sapiens, UniProt O14791, I384M/S342G); experiment: Acute APOL1 Thallium Assay with inducible stable clones of HEK 293 cells; assay type: cell-based; conditions: HEK 293 T-Rex cells expressing G1 APOL1; read-out: Thallium Assay (IC50)
T1 construct: expressed in transfected cells
T1 sequence (O14791 28-398 S342G/I384M): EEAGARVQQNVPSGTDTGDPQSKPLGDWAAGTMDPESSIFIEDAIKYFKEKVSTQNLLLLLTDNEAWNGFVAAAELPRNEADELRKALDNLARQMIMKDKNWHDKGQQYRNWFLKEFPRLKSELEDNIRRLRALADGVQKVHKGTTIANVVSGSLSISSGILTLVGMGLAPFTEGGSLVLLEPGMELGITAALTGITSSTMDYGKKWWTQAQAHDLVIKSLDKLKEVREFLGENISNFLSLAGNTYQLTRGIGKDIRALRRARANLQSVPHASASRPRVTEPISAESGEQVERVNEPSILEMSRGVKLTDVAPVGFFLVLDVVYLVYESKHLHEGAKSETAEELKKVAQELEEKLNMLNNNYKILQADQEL
Outline: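 Tetracycline-inducible HEK293 T-Rex clone G1 DC3.25 expressing G1 APOL1, plated at 26000 cells/well in Opti-MEM with tetracycline induction. APOL1 pore activity read on FLIPR as fluorescence increase from Tl+ influx into cells loaded with a Tl+-sensitive AM-ester dye.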

SMILES	IC50
O=C1NCCCC1NC(=O)[C@H]1C[C@@H](c2c(-c3ccc(F)cc3)[nH]c3c(F)cc(F)cc32)C1 (stereo partly drawn) [Compound 249]	> 1000 nM
O=C([C@H]1C[C@@H](c2c(-c3ccc(F)cc3)[nH]c3c(F)cc(F)cc32)C1)N1C[C@@H](O)[C@H](O)C1 [Compound 274]	> 1000 nM
CC1(C(=O)N[C@H]2CCNC2=O)CC(c2c(-c3ccc(F)cc3)[nH]c3c(F)cc(F)cc23)C1 (mixture of isomers) [Compound 284]	250 to 1000 nM
O=C([C@H]1C[C@H](c2c(-c3ccc(F)cc3)[nH]c3c(F)cc(F)cc32)C1)N1CCOC(CO)C1 (stereo partly drawn) [Compound 151]	> 1000 nM

Now from value to compound:

IC50	SMILES
> 1000 nM	O=C(N[C@H]1C[C@H](O)C1)[C@H]1C[C@@H](c2c(-c3ccc(F)cc3)[nH]c3c(F)cc(F)cc32)C1 [Compound 267]
> 1000 nM	O=C1NCCC1NC(=O)[C@H]1C[C@@H](c2c(-c3ccc(F)cc3)[nH]c3c(F)cc(F)cc32)C1 (stereo partly drawn) [Compound 268]
> 1000 nM	O=C(CNC(=O)[C@H]1C[C@H](c2c(-c3ccc(F)cc3)[nH]c3c(F)cc(F)cc32)C1)NC[C@@H](O)C(F)(F)F [Compound 233]

same assay, conditions: Table 24, Compounds 287 to 465; read-out: Thallium Assay (IC50)

SMILES	IC50
CC1(O)CC(NC(=O)C2CC(Cc3c(-c4ccc(F)cc4)[nH]c4c(F)cc(F)cc34)C2)C1 (stereo not drawn) [Compound 325]	> 1000 nM
CC(O)(CO)CNC(=O)C1CC(Cc2c(-c3ccc(F)cc3)[nH]c3c(F)cc(F)cc23)C1 (stereo not drawn) [Compound 324]	> 1000 nM
NC(=O)C(CO)NCC1CC(c2c(-c3ccc(F)cc3)[nH]c3c(F)cc(F)cc23)C1 (stereo not drawn) [Compound 437]	250 to 1000 nM
CNC(=O)C(C)NCC1CC(c2c(-c3ccc(F)cc3)[nH]c3c(F)cc(F)cc23)C1 (mixture of isomers) [Compound 436]	250 to 1000 nM
O=C(Nc1c[nH][nH]c1=O)C1CC(Cc2c(-c3ccc(F)cc3)[nH]c3c(F)cc(F)cc23)C1 (stereo not drawn) [Compound 310]	> 1000 nM
O=C1CC(CNC(=O)C2CC(Cc3c(-c4ccc(F)cc4)[nH]c4c(F)cc(F)cc34)C2)CN1 (stereo not drawn) [Compound 336]	> 1000 nM
C[C@@H](CO)NC(=O)O[C@H]1C[C@H](c2c(-c3ccc(F)cc3)[nH]c3c(F)cc(F)cc32)C1 [Compound 357]	250 to 1000 nM
Cn1ccnc1CNC(=O)C1CC(Cc2c(-c3ccc(F)cc3)[nH]c3c(F)cc(F)cc23)C1 (stereo not drawn) [Compound 338]	> 1000 nM
CC(O)(CO)CNC(=O)O[C@H]1C[C@H](c2c(-c3ccc(F)cc3)[nH]c3c(F)cc(F)cc32)C1 (mixture of isomers) [Compound 378]	> 1000 nM
CC(C)(O)CNC(=O)C1CC(Cc2c(-c3ccc(F)cc3)[nH]c3c(F)cc(F)cc23)C1 (stereo not drawn) [Compound 318]	> 1000 nM

The next lines start with the values.

IC50	SMILES
> 1000 nM	O=C(CC1CC(c2c(-c3ccc(F)cc3)[nH]c3c(F)cc(F)cc23)C1)N[C@H](CO)C(F)(F)F (stereo partly drawn) [Compound 461]
> 1000 nM	O=C(CC1CC(c2c(-c3ccc(F)cc3)[nH]c3c(F)cc(F)cc23)C1)NC1(CO)CCC1 (stereo not drawn) [Compound 452, 2-[3-[5,7-difluoro-2-(4-fluorophenyl)-1H-indol-3-yl]cyclobutyl]-N-[1-(hydroxymethyl)cyclobutyl]acetamide]
> 1000 nM	COCCNC(=O)CC1CC(c2c(-c3ccc(F)cc3)[nH]c3c(F)cc(F)cc23)C1 (stereo not drawn) [Compound 460]
< 250 nM	NC(=O)CNC[C@H]1C[C@H](c2c(-c3ccc(F)cc3)[nH]c3c(F)cc(F)cc32)C1 [Compound 445, 2-((((1r,3r)-3-(5,7-difluoro-2-(4-fluorophenyl)-1H-indol-3-yl)cyclobutyl)methyl)amino)acetamide]
> 1000 nM	O=C(NCC1CC1)O[C@H]1C[C@H](c2c(-c3ccc(F)cc3)[nH]c3c(F)cc(F)cc32)C1 [Compound 370]
> 1000 nM	CNC(=O)N(C)CC1CC(c2c(-c3ccc(F)cc3)[nH]c3c(F)cc(F)cc23)C1 (stereo not drawn) [Compound 428]
> 1000 nM	C[C@@H](CO)NC(=O)NC[C@H]1C[C@H](c2c(-c3ccc(F)cc3)[nH]c3c(F)cc(F)cc32)C1 [Compound 414]

Source: patent publication US12116343B2, “Inhibitors of APOL1 and methods of using same” (Vertex Pharmaceuticals Incorporated, priority 2020, dated 2024)
